Assay: Release in the rabbit eye, measured by drug contained in the aqueous humor
Assay type: in vivo
Details: released from the gel of the ophthalmically acceptable vehicle
Method: The viscous gels that result upon administration of the aqueous suspensions of this invention to the eye have residence times in the eye ranging from about 2 to about 12 hours, e.g., from about 3 to about 6 hours. The active ingredients contained in these ophthalmically acceptable vehicles are released from the gels at rates that depend on such factors as the active ingredient itself and its physical form, the extent of drug loading and the pH of the system, as well as on any drug delivery adjuvants, such as ion exchange resins compatible with the ocular surface, which can also be present.

- release rates in the rabbit eye, as measured by fluorometholone contained in the aqueous humor: in excess of four hours
SMILES: CC(=O)[C@@]1(O)CC[C@H]2[C@@H]3C[C@H](C)C4=CC(=O)C=C[C@]4(C)[C@@]3(F)[C@@H](O)C[C@@]21C [fluorometholone]

— patent US20130165419A1, “COMBINATION ANTI-INFLAMMATORY OPHTHALMIC COMPOSITIONS” (INSITE VISION INCORPORATED, priority 2011, published 2013)
